Test results reported in ChEMBL document CHEMBL4229345, “Inhibition of trypanosome alternative oxidase without its N-terminal mitochondrial targeting signal (ΔMTS-TAO) by cationic and non-cationic 4-hydroxybenzoate and 4-alkoxybenzaldehyde derivatives active against T. brucei and T. congolense” (Eur J Med Chem, 2018).
Converted amounts (≈) assume the structure as drawn.

Columns and labels:
[1] = tested on: Trypanosoma brucei brucei; experiment: Anti-parasitic activity against bloodstream trypomastigote stage of wild-type Trypanosoma brucei brucei Lister 427 after 48 hrs by resazurin-based assay; format: functional, organism-based; settings: Lister 427, 48 h
[2] = Inhibition of recombinant N-terminal His6 tagged SUMO-fused Trypanosoma brucei brucei TC221 TAO MTS deletion mutant expressed in Escherichia coli FN102 preincubated for 2 mins followed by ubiquinol-1 addition measured over 2 mins by double beam-dual wavelength UV-spectrophotometry
Trypanosoma brucei = experiment: Anti-parasitic activity against bloodstream trypomastigote stage of pentamidine/diminazene/melaminophenyl arsenical resistant Trypanosoma brucei B48 after 48 hrs by resazurin-based assay; format: functional, organism-based; settings: B48, 48 h
[3] = Resistance factor, ratio of EC50 for bloodstream trypomastigote stage of pentamidine/diminazene/melaminophenyl arsenical resistant Trypanosoma brucei B48 to EC50 for bloodstream trypomastigote stage of wild-type Trypanosoma brucei brucei Lister 427; format: functional
[4] = Selectivity index, ratio of CC50 for HEK cells to EC50 for bloodstream trypomastigote stage of wild-type Trypanosoma brucei brucei Lister 427; format: toxicity; settings: human, read-out: Ratio CC50/EC50
[5] = tested on: Trypanosoma brucei brucei; experiment: Anti-parasitic activity against bloodstream trypomastigote stage of Trypanosoma brucei brucei with AQP2/3-dd knock out after 48 hrs by resazurin-based assay; format: functional, organism-based
[6] = tested on: Trypanosoma brucei brucei; experiment: Resistance factor, ratio of EC50 for bloodstream trypomastigote stage of Trypanosoma brucei brucei with AQP2/3-dd knock out to EC50 for bloodstream trypomastigote stage of wild-type Trypanosoma brucei brucei Lister 427; format: functional
Trypanosoma congolense = experiment: Anti-parasitic activity against bloodstream form of Trypanosoma congolense IL3000 after 48 hrs by resazurin-based assay; format: functional, organism-based; settings: IL3000, 48 h
[7] = Noncompetitive inhibition of recombinant N-terminal His6 tagged SUMO-fused Trypanosoma brucei brucei TC221 TAO MTS deletion mutant expressed in Escherichia coli FN102 preincubated for 2 mins followed by ubiquinol-1 addition measured over 2 mins by Lineweaver-Burk plot analysis
[8] = tested on: Trypanosoma brucei brucei; experiment: Resistance factor, ratio of EC50 for bloodstream trypomastigote stage of Trypanosoma brucei brucei AQP triple knock out to EC50 for bloodstream trypomastigote stage of wild-type Trypanosoma brucei brucei Lister 427; format: functional
[9] = tested on: Trypanosoma brucei brucei; experiment: Anti-parasitic activity against bloodstream trypomastigote stage of Trypanosoma brucei brucei with AQP triple knock out after 48 hrs by resazurin-based assay; format: functional, organism-based
[10] = Cytotoxicity against HEK cells assessed as reduction in cell viability after 30 hrs by resazurin-based assay; settings: human
[11] = tested on: Trypanosoma brucei brucei; experiment: Resistance factor, ratio of EC50 for bloodstream trypomastigote stage of wild-type Trypanosoma brucei brucei Lister 427 in presence of 5 mM glycerol to EC50 for bloodstream trypomastigote stage of wild-type Trypanosoma brucei brucei Lister 427; format: functional
[12] = tested on: Trypanosoma brucei brucei; experiment: Anti-parasitic activity against bloodstream trypomastigote stage of wild-type Trypanosoma brucei brucei Lister 427 after 48 hrs in presence of 5 mM glycerol by resazurin-based assay; format: functional, organism-based; settings: Lister 427, 48 h
[13] = Stability in horse serum assessed as compound receovery after 24 hrs by LC/MS analysis; format: ADME, cell-free, Equus caballus; settings: read-out: Drug recovery
[14] = Stability in mouse serum assessed as compound hydrolysis after 24 hrs by LC/MS analysis; format: ADME, cell-free; settings: read-out: Drug degradation
[15] = Selectivity index, ratio of CC50 for HFF cells to EC50 for bloodstream form of Trypanosoma congolense IL3000; format: toxicity; settings: human, read-out: Ratio CC50/EC50
[16] = Cytotoxicity against HFF cells assessed as reduction in cell viability after 30 hrs by resazurin-based assay; settings: human
[17] = Competitive inhibition of recombinant N-terminal His6 tagged SUMO-fused Trypanosoma brucei brucei TC221 TAO MTS deletion mutant expressed in Escherichia coli FN102 preincubated for 2 mins followed by ubiquinol-1 addition measured over 2 mins by Lineweaver-Burk plot analysis
[18] = Half life in mouse serum by LC/MS analysis; format: ADME, cell-free
[19] = Selectivity index, ratio of CC50 for HFF cells to EC50 for bloodstream trypomastigote stage of wild-type Trypanosoma brucei brucei Lister 427; format: toxicity; settings: human, read-out: Ratio CC50/EC50
[20] = Non-competitive inhibition of Trypanosoma brucei brucei TC221 TAO expressed in Escherichia coli FN102 assessed as reduction in ubiquinoldependent oxygen consumption by spectrophotometry
[21] = tested on: Trypanosoma brucei brucei; experiment: Anti-parasitic activity against bloodstream trypomastigote stage of wild-type Trypanosoma brucei brucei Lister 427; format: functional

With `O=C(OCCCCCCCCCCOC(=O)c1ccc(O)cc1O)c1ccc(O)cc1O` as the compound, how does the EC50 [1] read?
Its EC50 is 49 µM.

What about the IC50 [2] of the same compound?
Its IC50 is 0.0069 µM.

What about the EC50 (Trypanosoma brucei) of the same compound?
Its EC50 is 41.6 µM.

What about the Ratio EC50 [3] of the same compound?
The Ratio EC50 was 0.85.

And the selectivity ratio [4]?
Its selectivity ratio is > 8.

What about the EC50 [5] of the same compound?
Its EC50 is 24.6 µM.

And the “Ratio EC50” value [6]?
The value was 0.5.

What about the EC50 (Trypanosoma congolense) of the same compound?
The EC50 was > 100 µM.

And the Ki [7]?
The Ki was 0.0341 µM.

What about the “Ratio EC50” value [8] of the same compound?
The value was 0.14.

What about the EC50 [9] of the same compound?
Its EC50 is 7.1 µM.

What about the CC50 at 30 h [10] of the same compound?
The CC50 at 30 h was > 400 µM.

What about the “Ratio EC50” value [11] of the same compound?
The value was 0.25.

And the EC50 [12]?
Its EC50 is 12.2 µM.

With `O=COCCCCCCCCCCCCCCCCOC(=O)c1ccc(O)cc1O` as the compound, how does the EC50 [1] read?
The EC50 was 11.9 µM.

What about the IC50 [2] of the same compound?
The IC50 was 0.0144 µM.

And the EC50 (Trypanosoma brucei)?
The EC50 was 13 µM.

And the Ratio EC50 [3]?
Its Ratio EC50 is 1.1.

What about the selectivity ratio [4] of the same compound?
Its selectivity ratio is > 34.

And the EC50 [5]?
Its EC50 is 5 µM.

And the “Ratio EC50” value [6]?
The value was 0.42.

And the EC50 (Trypanosoma congolense)?
Its EC50 is > 100 µM.

What about the Ki [7] of the same compound?
The Ki was 0.0714 µM.

And the “Ratio EC50” value [8]?
The value was 0.11.

What about the EC50 [9] of the same compound?
Its EC50 is 1.27 µM.

And the CC50 at 30 h [10]?
The CC50 at 30 h was > 400 µM.

What about the “Ratio EC50” value [11] of the same compound?
Its value is 0.43.

What about the EC50 [12] of the same compound?
Its EC50 is 5.1 µM.

With `COc1ccc([C@@H]2Sc3ccccc3N(CCN(C)C)C(=O)[C@@H]2OC(C)=O)cc1` [DILTIAZEM] as the compound, how does the remaining at 24 h [13] read?
Its remaining at 24 h is 1%.

What does the source list for `Cc1cc(O)ccc1C(=O)OCCCCCCCCCCCCCC[n+]1cccc2ccccc21.[Br-]`?
EC50 [1]: 0.21 µM; IC50 [2]: 0.03 µM; EC50 (Trypanosoma brucei): 0.3 µM; metabolised at 24 h [14]: > 99%; selectivity ratio [15]: > 110; Ratio EC50 [3]: 1.4; EC50 [5]: 0.1 µM; CC50 at 30 h [16]: > 200 µM; Ratio EC50 [6]: 0.47; EC50 (Trypanosoma congolense): 1.82 µM; Ki [17]: 0.0529 µM; Ratio EC50 [8]: 0.41; EC50 [9]: 0.086 µM; half-life [18]: 30 min; selectivity ratio [19]: > 952; Ratio EC50 [11]: 0.69; EC50 [12]: 0.145 µM

What does the source list for `C/C(=C\Cc1c(O)c(Cl)c(C)c(C=O)c1O)CC/C=C(\C)[C@@H]1CC(=O)C(C)(C)O1` [ASCOFURANONE]?
Ki [20]: 0.00238 µM; IC50 [2]: 0.002 µM; MIC [21]: 250 µM (≈ 105 µg/mL); MIC [12]: 30 µM
